# From paper PMC12028158, “Synthesis and In Vitro Evaluation of the Anticancer Effect of Novel Phosphonium Vindoline Derivatives” (International Journal of Molecular Sciences, 2025)
# Experiments:
# Assay type in all cases: cell-based
# [1] = test system: UO-31; test: NCI60 one-dose screen; conditions: Homo sapiens, UO-31, read-out: Growth percent
# [2] = test system: MDA-MB-468; test: NCI60 one-dose screen; conditions: Homo sapiens, MDA-MB-468, read-out: Growth percent
# [3] = test system: SK-MEL-28; test: NCI60 one-dose screen; conditions: Homo sapiens, SK-MEL-28, read-out: Growth percent
# [4] = test system: HCT-116; test: NCI60 one-dose screen; conditions: Homo sapiens, HCT-116, read-out: Growth percent
# [5] = test system: SF-268; test: NCI60 one-dose screen; conditions: Homo sapiens, SF-268, read-out: Growth percent
# [6] = test system: HS 578T; test: NCI60 one-dose screen; conditions: Homo sapiens, Hs-578T, read-out: Growth percent
# [7] = test system: SF-295; test: NCI60 one-dose screen; conditions: Homo sapiens, SF-295, read-out: Growth percent
# [8] = test system: NCI-H226; test: NCI60 one-dose screen; conditions: Homo sapiens, NCI-H226, read-out: Growth percent
# [9] = test system: OVCAR-5; test: NCI60 one-dose screen; conditions: Homo sapiens, OVCAR-5, read-out: Growth percent
# [10] = test system: CAKI-1; test: NCI60 one-dose screen; conditions: Homo sapiens, CAKI-1, read-out: Growth percent
# [11] = test system: NCI-H522; test: NCI60 one-dose screen; conditions: Homo sapiens, NCI-H522, read-out: Growth percent
# [12] = test system: M14; test: NCI60 one-dose screen; conditions: Homo sapiens, M14, read-out: Growth percent
# [13] = test system: UACC-257; test: NCI60 one-dose screen; conditions: Homo sapiens, UACC-257, read-out: Growth percent
# [14] = test system: HOP-62; test: NCI60 one-dose screen; conditions: Homo sapiens, HOP-62, read-out: Growth percent
# [15] = test system: TK-10; test: NCI60 one-dose screen; conditions: Homo sapiens, TK-10, read-out: Growth percent
# [16] = test system: ACHN; test: NCI60 one-dose screen; conditions: Homo sapiens, read-out: Growth percent
# [17] = test system: RPMI-8226; test: NCI60 one-dose screen; conditions: Homo sapiens, RPMI-8226, read-out: Growth percent
# [18] = test system: SNB-75; test: NCI60 one-dose screen; conditions: Homo sapiens, SNB-75, read-out: Growth percent
# [19] = test system: DU-145; test: NCI60 one-dose screen; conditions: Homo sapiens, DU-145, read-out: Growth percent
# [20] = test system: T-47D; test: NCI60 one-dose screen; conditions: Homo sapiens, T47D, read-out: Growth percent
# [21] = test system: HT29; test: NCI60 one-dose screen; conditions: Homo sapiens, HT-29, read-out: Growth percent
# [22] = test system: U251; test: NCI60 one-dose screen; conditions: Homo sapiens, U-251, read-out: Growth percent
# [23] = test system: MDA-MB-468; test: NCI60 five-dose screen; conditions: Homo sapiens, MDA-MB-468
# [24] = test system: NCI-H322M; test: NCI60 five-dose screen; conditions: Homo sapiens
# [25] = test system: KM12; test: NCI60 five-dose screen; conditions: Homo sapiens, KM12
# [26] = test system: Non-small Cell Lung Cancer panel; test: NCI60 five-dose screen, panel mean; conditions: Homo sapiens, read-out: GI50 Mean
# [27] = test system: A549/ATCC; test: NCI60 five-dose screen; conditions: Homo sapiens, A549
# [28] = test system: COLO 205; test: NCI60 five-dose screen; conditions: Homo sapiens, COLO 205
# [29] = test system: U251; test: NCI60 five-dose screen; conditions: Homo sapiens, U-251
# [30] = test system: TK-10; test: NCI60 five-dose screen; conditions: Homo sapiens, TK-10
# [31] = test system: CCRF-CEM; test: NCI60 five-dose screen; conditions: Homo sapiens
# [32] = test system: UACC-257; test: NCI60 five-dose screen; conditions: Homo sapiens, UACC-257
# [33] = test system: LOX IMVI; test: NCI60 five-dose screen; conditions: Homo sapiens
# [34] = test system: NCI-H460; test: NCI60 five-dose screen; conditions: Homo sapiens, NCI-H460
# [35] = test system: SNB-19; test: NCI60 five-dose screen; conditions: Homo sapiens, SNB-19
# [36] = test system: SW-620; test: NCI60 five-dose screen; conditions: Homo sapiens, SW-620
# [37] = test system: ACHN; test: NCI60 five-dose screen; conditions: Homo sapiens
# [38] = test system: HOP-62; test: NCI60 five-dose screen; conditions: Homo sapiens, HOP-62
# [39] = test system: OVCAR-5; test: NCI60 five-dose screen; conditions: Homo sapiens, OVCAR-5
# [40] = test system: Ovarian Cancer panel; test: NCI60 five-dose screen, panel mean; conditions: Homo sapiens, read-out: GI50 Mean
# [41] = test system: MCF7; test: NCI60 five-dose screen; conditions: Homo sapiens, MCF7
# [42] = test system: Renal Cancer panel; test: NCI60 five-dose screen, panel mean; conditions: Homo sapiens, read-out: GI50 Mean
# [43] = test system: Colon Cancer panel; test: NCI60 five-dose screen, panel mean; conditions: Homo sapiens, read-out: GI50 Mean
# [44] = test system: T-47D; test: NCI60 five-dose screen; conditions: Homo sapiens, T47D
# [45] = test system: COLO 205; test: NCI60 one-dose screen; conditions: Homo sapiens, COLO 205, read-out: Growth percent
# [46] = test system: MOLT-4; test: NCI60 five-dose screen; conditions: Homo sapiens, MOLT-4
compound,measurement,setting,value
"CCC12C=CCN3CC[C@@]4(c5ccc(OC)cc5N(C)[C@H]4[C@@](O)(C(=O)OC)[C@@H]1OC(C)=O)[C@@H]32 (stereo partly shown) [compound 2, vindoline]",activity at 10 µM,[1],83.9%
same,activity at 10 µM,[2],102%
same,activity at 10 µM,[3],106%
same,activity at 10 µM,[4],104%
same,activity at 10 µM,[5],100%
same,activity at 10 µM,[6],113%
same,activity at 10 µM,[7],99.5%
same,activity at 10 µM,[8],104%
same,activity at 10 µM,[9],91.2%
same,activity at 10 µM,[10],97.5%
same,activity at 10 µM,[11],88.5%
same,activity at 10 µM,[12],104%
same,activity at 10 µM,[13],98.7%
same,activity at 10 µM,[14],92.2%
same,activity at 10 µM,[15],92.1%
same,activity at 10 µM,[16],101%
same,activity at 10 µM,[17],101%
same,activity at 10 µM,[18],73.1%
same,activity at 10 µM,[19],107%
same,activity at 10 µM,[20],95.7%
same,activity at 10 µM,[21],98.5%
same,activity at 10 µM,[22],99.4%
"CC[C@]12C=CCN3CC[C@@]4(c5ccc(OC)cc5N(C)[C@H]4[C@@](O)(C(=O)OC)[C@@H]1OC(=O)CCCC[P+](c1ccccc1)(c1ccccc1)c1ccccc1)[C@@H]32 [compound 4, reference compound]",activity at 10 µM,[1],81.9%
same,activity at 10 µM,[2],-63.9%
same,activity at 10 µM,[3],12.5%
same,activity at 10 µM,[4],8.03%
same,GI50,[23],170 nM
same,GI50,[24],3000 nM
same,activity at 10 µM,[5],26.2%
same,GI50,[25],442 nM
same,GI50,[26],1440 nM
same,GI50,[27],1020 nM
same,GI50,[28],242 nM
same,GI50,[29],312 nM
same,activity at 10 µM,[6],9.79%
same,GI50,[30],2820 nM
same,GI50,[31],697 nM
same,activity at 10 µM,[7],58.1%
same,GI50,[32],215 nM
same,activity at 10 µM,[8],15.1%
same,activity at 10 µM,[9],23.8%
same,GI50,[33],1170 nM
same,activity at 10 µM,[10],85.9%
same,GI50,[34],2110 nM
same,activity at 10 µM,[11],-5.5%
same,GI50,[35],397 nM
same,GI50,[36],1180 nM
same,activity at 10 µM,[12],29.4%
same,activity at 10 µM,[13],2.15%
same,GI50,[37],14600 nM
same,GI50,[38],2600 nM
same,GI50,[39],1820 nM
same,GI50,[40],15100 nM
same,activity at 10 µM,[14],26.4%
same,activity at 10 µM,[15],48.6%
same,GI50,[41],322 nM
same,activity at 10 µM,[16],93%
same,GI50,[42],4870 nM
same,activity at 10 µM,[17],15.4%
same,GI50,[43],3190 nM
same,activity at 10 µM,[18],-12.8%
same,activity at 10 µM,[19],14.7%
same,activity at 10 µM,[20],4.99%
same,GI50,[44],303 nM
same,activity at 10 µM,[45],-93.7%
same,activity at 10 µM,[21],2.65%
same,activity at 10 µM,[22],10.9%
CC[C@]12C=CCN3CC[C@@]4(c5ccc(OC)cc5N(C)[C@H]4[C@@](O)(C(=O)OC)[C@@H]1OC(=O)CCCC[P+](c1ccc(OC)cc1)(c1ccc(OC)cc1)c1ccc(OC)cc1)[C@@H]32 [10b],activity at 10 µM,[1],15.5%
same,activity at 10 µM,[2],-92.7%
same,activity at 10 µM,[3],-96.8%
same,activity at 10 µM,[4],-94.9%
same,GI50,[23],264 nM
same,GI50,[24],2790 nM
same,activity at 10 µM,[5],-38.1%
same,GI50,[25],675 nM
same,GI50,[26],1360 nM
same,GI50,[27],1650 nM
same,GI50,[28],214 nM
same,GI50,[29],392 nM
same,activity at 10 µM,[6],-67.5%
same,GI50,[30],1670 nM
same,activity at 10 µM,[7],-93.6%
same,GI50,[32],792 nM
same,activity at 10 µM,[8],-63.6%
same,activity at 10 µM,[9],-98.6%
same,GI50,[33],1110 nM
same,activity at 10 µM,[10],-78.5%
same,GI50,[34],1150 nM
same,activity at 10 µM,[11],-81.9%
same,GI50,[35],484 nM
same,GI50,[36],1060 nM
same,activity at 10 µM,[12],-89.8%
same,activity at 10 µM,[13],-93.4%
same,GI50,[37],6280 nM
same,GI50,[38],2420 nM
same,GI50,[39],2130 nM
same,GI50,[40],4110 nM
same,activity at 10 µM,[14],-80.8%
same,activity at 10 µM,[15],-88.2%
same,GI50,[41],105 nM
same,GI50,[46],1180 nM
same,activity at 10 µM,[16],-49.2%
same,GI50,[42],4340 nM
same,activity at 10 µM,[17],-68.8%
same,GI50,[43],1880 nM
same,activity at 10 µM,[18],-95.4%
same,activity at 10 µM,[19],-58.2%
same,activity at 10 µM,[20],-46.6%
same,GI50,[44],383 nM
same,activity at 10 µM,[45],-64.9%
same,activity at 10 µM,[21],-63.1%
same,activity at 10 µM,[22],-95.9%
